Data reported in article PMC11648681, “Development of machine learning models for the prediction of the skin sensitization potential of cosmetic compounds” (PeerJ, 2024).
Values joined by “and” are separate entries in the source; they are usually repeats but may differ in a detail not shown here. Equal values may be shown once. Read-outs that look alike come from different tables or passages of the source.

Assays:
[1] = CCK-8 cell viability of THP-1 cells after 48 h compound treatment in HaCaT/THP-1 co-culture; type: cell-based, human; details: human
Protocol: (§1) The co-culture system was set up according to the following described method. […] THP-1 cells were collected, centrifuged, and re-suspended in fresh RPMI-1640 medium supplemented with 10% FBS at 2 × 10^6 cells/mL. Then cells are distributed into HaCaT-seeded 96 wells plate with 80 μL (1.6 × 10^5 cells/well).
(§2) The compounds listed in Table 1 were dissolved in DMSO to create stock solutions with a concentration of 500 mg/mL. Eleven concentrations were subsequently prepared using two-fold serial dilutions. These stock solutions were then further diluted 250-fold in RPMI-1640 + 10% FBS medium. Finally, 80 μL of the prepared solutions were added 1:1 to the treated 96-well plates and incubated for 48 h at 37 °C and 5% CO2.
(§3) After 48 h of treatment, the treated cells were collected 100 μL cells per well. The supernatant medium was added 10 μL of CCK-8 (Life-iLab, Shanghai, China) solution to each well and incubated the plate in the incubator for 2–4 h. THP-1 cell viability was determined using standard calculation methods.
(§4) The cytotoxicity of 15 test compounds listed in Table 1 was assessed using THP-1 cells across a concentration range of 1,000 to 3.9 μg/mL. Cell viability was assessed after 48 h of treatment using the CCK-8 assay.

THP-1 cells = assay: as above; type: cell-based, human; details: for Cell viability / final concentration used (highest concentration that maintained at least 80% cell viability): 48 h; for IC50 (cytotoxicity): 48 h treatment, CCK-8, range 1,000 to 3.9 μg/mL
Protocol: as §1, §2, §3, §4

[2] = 48 h, THP-1, individual replicate values
[3] = 0.976563 μg/mL, THP-1, individual replicate values
[4] = 1.95312 μg/mL, THP-1, individual replicate values
[5] = 3.90625 μg/mL, THP-1, individual replicate values
[6] = 7.8125 μg/mL, THP-1, individual replicate values
[7] = 15.625 μg/mL, THP-1, individual replicate values
[8] = 62.5 μg/mL, THP-1, individual replicate values
[9] = 125 μg/mL, THP-1, individual replicate values
[10] = 250 μg/mL, THP-1, individual replicate values
[11] = 500 μg/mL, THP-1, individual replicate values
[12] = 1000 μg/mL, THP-1, individual replicate values
[13] = 31.25 μg/mL, THP-1, individual replicate values

Structure (SMILES)	viability at 48 h, 0.976563 μg/mL [1, 2]	viability at 48 h, 1.95312 μg/mL [1, 2]	viability at 48 h, 3.90625 μg/mL [1, 2]	viability at 48 h, 7.8125 μg/mL [1, 2]	viability at 48 h, 15.625 μg/mL [1, 2]	viability at 48 h, 62.5 μg/mL [1, 2]	viability at 48 h, 125 μg/mL [1, 2]	viability at 48 h, 250 μg/mL [1, 2]	viability at 48 h, 500 μg/mL [1, 2]	Cell viability (THP-1 cells; [3])	Cell viability (THP-1 cells; [4])	Cell viability (THP-1 cells; [5])	Cell viability (THP-1 cells; [6])	Cell viability (THP-1 cells; [7])	Cell viability (THP-1 cells; [8])	Cell viability (THP-1 cells; [9])	Cell viability (THP-1 cells; [10])	Cell viability (THP-1 cells; [11])	Cell viability (THP-1 cells; [12])	Cell viability (THP-1 cells; [13])	other results
C=CCc1ccc(O)c(OC)c1 [eugenol, Eugenol]	96.1%	85.9%	94%	89.2%	84%	96.6%	54.7%	13.4%	19.5%	95.2766%	82.8227%	95.5106%	87.9007%	89.6454%	83.0993%	50.2837%	13.5816%	12.3688%	8.652% and 19.4894%	–	viability at 48 h, 31.25 μg/mL ([1]; Cell viability): 89.2%; final concentration used (highest concentration that maintained at least 80% cell viability) (THP-1 cells; human): 31.2 µg/mL; Cell viability (THP-1 cells; human, 31.25 μg/mL): 101.56%
C[S+](C)[O-] [DMSO, Dimethyl sulfoxide]	–	–	–	–	–	–	–	–	–	104.048% and 100.267%	96% and 94.5143%	96.1619% and 89.1238%	–	–	–	–	–	86.8476% and 87.3143%	91.9905% and 89.9048%	–	IC50 (cytotoxicity) (THP-1 cells; THP-1 cells): greater than 1,000 μg/mL
O=[N+]([O-])c1ccc(Cl)c([N+](=O)[O-])c1 [DNCB, 2,4-dinitrochlorobenzene]	102%	88.2%	75.9%	6.82%	6.91%	7.52%	8.76%	11%	13.4%	95.0987%	97.1973%	71.1839%	7.332%	7.211%	9.193%	8.767%	9.112%	10.9865%	11.5516%	7.274%	viability at 48 h, 31.25 μg/mL ([1]; 31.25 μg/mL, 48 h, THP-1, individual replicate values, read-out: Cell viability): 7.1%; viability at 48 h, 1000 μg/mL ([1]; 1000 μg/mL, 48 h, THP-1, individual replicate values): 19.9%
CCCCCCCCCCCCOS(=O)(=O)[O-].[Na+] [SDS, Sodium dodecyl sulfate]	–	–	–	–	–	–	–	–	–	99.2381% and 110.076%	92.6381% and 90.6381%	73.0476% and 93.5333%	90.7238% and 93.3905%	95.4381% and 98.4286%	37.0381% and 32.0952%	15.5905% and 18.1809%	15.9333% and 15.6381%	15.1524% and 16.781%	14.1809% and 14.2952%	85.9333% and 91.0762%	final concentration used (highest concentration that maintained at least 80% cell viability) (THP-1 cells; THP-1 cells, CCK-8, single (not double) concentration): 31.25 µg/mL
CC(C)O [IPA, Isopropanol]	–	–	–	–	–	–	–	–	–	106.609% and 97.981%	97.8095% and 92.5429%	90.3238% and 89.219%	92.0495% and 89.6476%	92.1791% and 88.8381%	91.3838% and 93%	92.3943% and 110.771%	91.0095% and 92.9524%	91.6191% and 88.9333%	96.9905% and 96.3619%	92.0943% and 92.7371%	IC50 (cytotoxicity) (THP-1 cells; THP-1 cells): greater than 1,000 μg/mL
